Columns and labels:
MCL-1ΔNΔC [1] = target: T1, MCL-1ΔNΔC (Homo sapiens (Human), UniProt Q07820); assay: Competitive fluorescence polarization binding assay, MCL-1; conditions: competitive FP
Method: Here, we deployed MCL-1 SAHBA as a high fidelity screening tool to determine if its potency and specificity-of-action could be harnessed for small molecule discovery. […] A compilation of 71,296 small molecules was screened for the capacity to displace FITC-MCL-1 SAHBA from recombinant MCL-1ΔNΔC (aa 172-327) (FIG. 4).
Fluorescence polarization assays (FPA) were performed as previously described^38,39. […] Fluorescence polarization was measured at equilibrium and IC50 values calculated by nonlinear regression analysis of competitive binding curves using Prism software (Graphpad).

[2] = test system: wild-type or Bax−/−Bak−/− MEFs; assay: Caspase 3/7 activation (Caspase-Glo), MEFs; format: cell-based, mouse; conditions: 8 h
Method: (§1) p185^+Arf^−/− and MCL-1 or BCL-XL-rescued p185^+Arf^−/−Mcl^−/− cells were maintained in RPMI 1640 (ATCC) supplemented with 10% (v/v) FBS, 100 U/mL penicillin, 100 μg/mL streptomycin, 0.1 mM MEM non-essential amino acids and 50 μM β-mercaptoethanol. Mouse embryonic fibroblasts (MEFs) cells were maintained in DMEM high glucose (Invitrogen) supplemented with 10% (v/v) FBS, 100 U/mL penicillin, 100 μg/mL streptomycin, 2 mM L-glutamine, 50 mM HEPES, 0.1 mM MEM non-essential amino acids and 50 μM β-mercaptoethanol. […] Cell viability was assayed at 24 h by addition of CellTiter-Glo reagent according to the manufacturer's protocol (Promega), and luminescence was measured using a SpectraMax M5 microplate reader (Molecular Devices). Caspase 3/7 activation was assayed at 8 h by addition of Caspase-Glo 3/7 reagent according to manufacturer's protocol (Promega), and luminescence measured using a SpectraMax M5 microplate reader. Viability and caspase assays were performed in duplicate, repeated at least twice with independent cell cultures, and the data normalized to vehicle-treated control wells.

[3] = test system: BCL-XL-rescued p185+Arf−/−Mcl-1−/− CML cells; assay: Caspase 3/7 activation (Caspase-Glo), BCL-XL-dependent leukemia cells; format: cell-based, murine; conditions: 8 h
Method: p185^+Arf^−/− and MCL-1 or BCL-XL-rescued p185^+Arf^−/−Mcl^−/− cells were maintained in RPMI 1640 (ATCC) supplemented with 10% (v/v) FBS, 100 U/mL penicillin, 100 μg/mL streptomycin, 0.1 mM MEM non-essential amino acids and 50 μM β-mercaptoethanol. […] Caspase 3/7 activation was assayed at 8 h by addition of Caspase-Glo 3/7 reagent according to manufacturer's protocol (Promega), and luminescence measured using a SpectraMax M5 microplate reader. Viability and caspase assays were performed in duplicate, repeated at least twice with independent cell cultures, and the data normalized to vehicle-treated control wells.

BCL-XLΔC = BCL-XLΔC (Homo sapiens (Human), UniProt Q07817); assay: BAX-mediated liposomal release assay, suppression by BCL-XL; format: biochemical
Sequence of BCL-XLΔC (Q07817 1-212): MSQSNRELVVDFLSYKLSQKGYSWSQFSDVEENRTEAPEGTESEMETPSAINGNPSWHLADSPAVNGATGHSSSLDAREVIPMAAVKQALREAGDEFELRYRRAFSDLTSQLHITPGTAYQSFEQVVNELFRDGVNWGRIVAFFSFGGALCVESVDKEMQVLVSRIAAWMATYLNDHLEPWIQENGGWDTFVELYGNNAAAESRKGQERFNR
Method: (§2) Liposomes were prepared and release assays performed as previously described^46,47. Liposomal composition reflects a mixture of the following molar percentages of lipids (Avanti Polar Lipids): phosphatidylcholine, 48%; phosphatidylethanolamine, 28%; phosphatidylinositol, 10%; dioleoyl phosphatidylserine, 10%; and tetraoleoyl cardiolipin, 4%. Aliquots of mixed lipids (1 mg total) are stored in glass at −20° C. under nitrogen, and before use, resuspended in liposome assay buffer (10 mM HEPES, 200 mM KCl, 1 mM MgCl2, pH 7) containing 12.5 mM of the fluorescent dye ANTS (8-aminonaphthalene-1,3,6-trisulfonic acid, disodium salt) and 45 mM of the quencher DPX (p-xylene-bis-pyridinium bromide. The resulting slurry is vortexed for 10 min and freeze-thawed five times in liquid nitrogen and a 40° C. water bath, respectively. The solution is then passed through an Avanti Mini-Extruder Set (#610000) equipped with a 100 nm filter, followed by passage through a Sepharose column (GE Healthcare) to remove residual ANTS/DPX.

[4] = test system: wild-type or Bax−/−Bak−/− MEFs; assay: Cell viability (CellTiter-Glo), MEFs; format: cell-based, mouse; conditions: non-malignant fibroblasts, 24 h
Method: as §1

[5] = test system: BCL-XL-rescued p185+Arf−/−Mcl-1−/− CML cells; assay: Cell viability (CellTiter-Glo), BCL-XL-dependent leukemia cells; format: cell-based, murine; conditions: Mus musculus, 24 h
Method: Cell viability was assayed at 24 h by addition of CellTiter-Glo reagent according to the manufacturer's protocol (Promega), and luminescence was measured using a SpectraMax M5 microplate reader (Molecular Devices). […] Viability and caspase assays were performed in duplicate, repeated at least twice with independent cell cultures, and the data normalized to vehicle-treated control wells.

[6] = test system: parental p185+Arf−/− CML cells; assay: Cell viability and CalcuSyn synergy, parental leukemia cells; format: cell-based, murine; conditions: Mus musculus; parental cells expressing both MCL-1 and BCL-XL; read-out: IC50, cytotoxicity
Method: as §1

[7] = test system: MCL-1-rescued p185+Arf−/−Mcl-1−/− CML cells; assay: Cell viability (CellTiter-Glo), MCL-1-dependent leukemia cells; format: cell-based, murine; conditions: MCL-1-dependent cells
Description: A challenges in developing and applying molecular antagonists for BCL-2 family anti-apoptotic proteins is the variable expression of multiple homologues. That is, a cancer cell will only be susceptible to a selective anti-apoptotic inhibitor if the cell is especially dependent on that particular survival protein. […] To test MIM1's activity and specificity in cancer cells, we employed murine p185^+Arf^−/−Mcl-1^−/− chronic myelogenous leukemia (CML) cells that are unable to survive unless reconstituted with MCL-1, reflecting a stringent system for assessing MCL-1 dependence.
p185^+Arf^−/− and MCL-1 or BCL-XL-rescued p185^+Arf^−/−Mcl^−/− cells were maintained in RPMI 1640 (ATCC) supplemented with 10% (v/v) FBS, 100 U/mL penicillin, 100 μg/mL streptomycin, 0.1 mM MEM non-essential amino acids and 50 μM β-mercaptoethanol. […] Cell viability was assayed at 24 h by addition of CellTiter-Glo reagent according to the manufacturer's protocol (Promega), and luminescence was measured using a SpectraMax M5 microplate reader (Molecular Devices). Caspase 3/7 activation was assayed at 8 h by addition of Caspase-Glo 3/7 reagent according to manufacturer's protocol (Promega), and luminescence measured using a SpectraMax M5 microplate reader. […]

MCL-1ΔNΔC [8] = target: T1, MCL-1ΔNΔC; assay: BAX-mediated liposomal release assay, suppression by MCL-1; format: biochemical
Method: as §2

T1 sequence (Q07820 172-327, stated change not applied): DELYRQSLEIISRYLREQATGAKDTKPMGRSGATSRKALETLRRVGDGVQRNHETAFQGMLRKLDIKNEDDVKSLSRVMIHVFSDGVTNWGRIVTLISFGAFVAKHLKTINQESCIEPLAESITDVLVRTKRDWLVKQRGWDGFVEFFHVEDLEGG

In the case of `CN(C)CC[C@H](CSc1ccccc1)Nc1ccc(S(=O)(=O)NC(=O)c2ccc(N3CCN(Cc4ccccc4-c4ccc(Cl)cc4)CC3)cc2)cc1[N+](=O)[O-]` [ABT-737, N-(4-(4-((4′-chloro(1,1′-biphenyl)-2-yl)methyl)piperazin-1-yl)benzoyl)-4-(((1R)-3-(dimethylamino)-1-((phenylsulfanyl)methyl)propyl)amino)-3-nitrobenzenesulfonamide, reference compound], the “MCL-1ΔNΔC binding activity” value (MCL-1ΔNΔC [1]) is reported as “no activity”, the “caspase 3/7 activation” value [2] is reported as “no observed caspase 3/7 activation” and the “caspase 3/7 activation” value [3] is reported as “dose-responsive caspase 3/7 activation”. The “blockade of BCL-XLΔC suppression of tBID-induced BAX activation” value (BCL-XLΔC) was “negates”, the “effect on viability / toxicity” value [4] was “no significant effect” and the IC50 [5] was 1.6 µM. For the same compound, the IC50 [6] was 5.1 µM, the “effect on viability / cytotoxicity” value [7] was “no effect” and the “blockade of MCL-1ΔNΔC suppression of tBID-induced BAX activation” value (MCL-1ΔNΔC [8]) was “no effect”.
